# Test system: thyroid hormone-regulated promoter (TRE) luciferase in HepG2 hepatocarcinoma cell
# Experiment: T3 promoter assay cell test (luciferase reporter)
# Format: cell-based
# Details: Homo sapiens; stably transfected HepG2 cells, luciferase induction; one range stated for the listed examples together; read-out: effect in the T3 promoter assay cell test
# Method: The activity of the compounds according to the invention can be tested, for example, in vitro using the T3 Promoter Assay Cell test, which is described below:
# The test is carried out using a stably transfected human HepG2 hepatocarcinoma cell which expresses a luciferase gene under the control of a thyroid hormone-regulated promoter. The vector which is used for the transfection carries a minimal thymidine kinase promoter, containing a thyroid hormone-responsive element (TRE) which consists of two inverted palindromes of in each case 12 bp and an 8 bp spacer, upstream of the luciferase gene.
# For the test, the cell cultures are sown, in Eagle's minimal essential medium containing the following additions: glutamine, tricine [N(tris-(hydroxymethyl)-methyl)glycine], sodium pyruvate, non essential amino acids, (L-Ala, L-Asn, L-Asp, L-Pro, L-Ser, L-Glu, Gly), insulin, selenium and transferrin, in 96-well plates. The cultures are grown for 48 hours at 37° C. and under a 10% CO2 atmosphere. After that, serial dilutions of test substance or reference compound (T3, T4) and costimulator retinoic acid are added to the test cultures and the latter are incubated for a further 48 or 72 hours as before. Each substance concentration is tested in four replicates. In order to determine the luciferase which is induced by T3 or other substances, the cells are then lyzed by adding a buffer containing Triton and luciferin (from Promega) and immediately measured luminometrically.
row,Structure (SMILES),EC50
1,"CCOC(=O)Cc1coc2c(C)c(Oc3ccc(OC)c(C(C)C)c3)c(C)cc12 [Example 18, Ethyl 2-[6-(3-isopropyl-4-methoxyphenoxy)-5,7-dimethyl-1-benzofuran-3-yl]acetate]",0.5 to 240 nM
2,"Cc1cc2oc(C(=O)O)cc2c(C)c1Oc1ccc(O)c(C(C)C)c1 [Example 17, 5-(4-Hydroxy-3-isopropylphenoxy)-4,6-dimethyl-1-benzofuran-2-carboxylic acid]",0.5 to 240 nM
3,"CCOC(=O)CC1Cc2c(cc(C)c(Oc3ccc(O)c(C(C)C)c3)c2C)O1 (stereo not shown) [Example 28, Ethyl [5-(4-hydroxy-3-isopropylphenoxy)-4,6-dimethyl-2,3-dihydro-1-benzofuran-2-yl]acetate]",0.5 to 240 nM
4,"CCOC(=O)c1cc2c(Br)c(Oc3ccc(O)c(C(=O)c4ccc(F)cc4)c3)c(Br)cc2o1 [Example 32, Ethyl 4,6-dibromo-5-[3-(4-fluorobenzoyl)-4-hydroxyphenoxy]-1-benzofuran-2-carboxylate]",0.5 to 240 nM
